What all share (assay type): cell-based
What all share (settings): Human immunodeficiency virus 1

The subject of assay [1] is TREx-HeLa-Vpr. Briefly: Inhibition of -c-myc-His6 tagged HIV1 NL4-3 Vpr expressed in human TREx-HeLa-Vpr cells assessed as cell viability at 6.25 uM after 48 hrs in presence of tetracycline by WST8 assay. (In general: Tetrazolium dyes change colour on reduction, which living cells bring about.)
The subject of assay [2] is TREx-HeLa-Vpr. The assay can be described thus: Inhibition of -c-myc-His6 tagged HIV1 NL4-3 Vpr expressed in human TREx-HeLa-Vpr cells assessed as cell viability at 3.12 uM after 48 hrs in presence of tetracycline by WST8 assay.
Assay [3] deals with TREx-HeLa-Vpr. Briefly: Inhibition of -c-myc-His6 tagged HIV1 NL4-3 Vpr expressed in human TREx-HeLa-Vpr cells assessed as cell viability at 1.56 uM after 48 hrs in presence of tetracycline by WST8 assay.
For assay [4], the system named is TREx-HeLa-Vpr. The assay can be described thus: Inhibition of -c-myc-His6 tagged HIV1 NL4-3 Vpr expressed in human TREx-HeLa-Vpr cells assessed as cell viability at 5 uM after 48 hrs in presence of tetracycline by WST8 assay.

Active and inactive are the calls of the source. No cut-off for these calls is given here.

Take `C=C[C@]1(C)C=C2C[C@@H](O)[C@H]3C(C)(C)CC[C@H](OC(C)=O)[C@]3(C)[C@H]2CC1`: the Cell viability in the assay with TREx-HeLa-Vpr [1] stood at 105%. For the same compound, the Activity is 116% in the assay with TREx-HeLa-Vpr [2] and 130% in the assay on TREx-HeLa-Vpr [3].

Regarding `C=C[C@]1(C)C=C2[C@@H](OC(C)=O)[C@@H](O)[C@H]3C(C)(C)CCC[C@]3(C)[C@@]2(O)CC1`, the inhibition entry in the assay on TREx-HeLa-Vpr [1], in the assay with TREx-HeLa-Vpr [2] and in the assay on TREx-HeLa-Vpr [3] was “inactive” in each case.

On to `COc1c(C=O)c(O)cc2c1C(=O)c1ccccc1C2=O`, for which the Activity in the assay with TREx-HeLa-Vpr [4] was found to be 137%.

On to `C=C[C@]1(C)C=C2CC[C@H]3C(C)(C)C[C@H](O)[C@H](O)[C@]3(C)[C@H]2CC1`, for which the inhibition result in the assay on TREx-HeLa-Vpr [1], with TREx-HeLa-Vpr [2] and with TREx-HeLa-Vpr [3] was “inactive” throughout.

In the case of `C=C[C@@]1(C)CCC2=C(C[C@@H](O)[C@H]3C(C)(C)CCC[C@]23C)[C@@H]1OC`, the Cell viability with TREx-HeLa-Vpr [1] amounted to 114%. The Activity was 119% in the assay with TREx-HeLa-Vpr [2] and 126% in the assay with TREx-HeLa-Vpr [3].

For `C=C[C@]1(C)C=C2[C@H](OC(C)=O)C[C@H]3C(C)(C)CCC[C@]3(C)[C@@]2(O)CC1`, the inhibition result in the assay with TREx-HeLa-Vpr [1], with TREx-HeLa-Vpr [2] and in the assay with TREx-HeLa-Vpr [3] was “inactive” throughout.

`C=C[C@]1(C)C=C2[C@H](O)C[C@H]3C(C)(C)CCC[C@]3(C)[C@H]2CC1`: the inhibition entry with TREx-HeLa-Vpr [1], in the assay on TREx-HeLa-Vpr [2] and in the assay with TREx-HeLa-Vpr [3] was “inactive” throughout.

On to `C=C[C@@]1(C)CCC2=C(C[C@@H](O)[C@H]3C(C)(C)CCC[C@]23C)[C@@H]1O`, for which, in the assay with TREx-HeLa-Vpr [1], the Cell viability turned out to be 157%. Besides, the Activity amounted to 170% in the assay with TREx-HeLa-Vpr [2] and 180% in the assay on TREx-HeLa-Vpr [3].

Consider `C=C[C@]1(C)C=C2CC[C@H]3C(C)(C)CC[C@H](O)[C@]3(C)[C@H]2CC1`, for which the inhibition result in the assay with TREx-HeLa-Vpr [1], in the assay with TREx-HeLa-Vpr [2] and in the assay on TREx-HeLa-Vpr [3] was “inactive” throughout.

On to `C=C[C@@]1(C)CCC2=C(C[C@@H](O)[C@H]3C(C)(C)CCC[C@]23C)[C@H]1O`, for which the inhibition entry with TREx-HeLa-Vpr [1], in the assay with TREx-HeLa-Vpr [2] and in the assay on TREx-HeLa-Vpr [3] was “inactive” in each case.

For `C=C[C@]1(C)C=C2[C@@H](O)C[C@H]3C(C)(C)CCC[C@]3(C)[C@@]2(O)CC1`, the inhibition result in the assay on TREx-HeLa-Vpr [1], in the assay on TREx-HeLa-Vpr [2] and in the assay on TREx-HeLa-Vpr [3] was “inactive” each time.

As for `C=C[C@]1(C)C=C2C[C@@H](OC(C)=O)[C@H]3C(C)(C)CCC[C@]3(C)[C@@]2(O)CC1`, the inhibition entry with TREx-HeLa-Vpr [1], in the assay with TREx-HeLa-Vpr [2] and in the assay with TREx-HeLa-Vpr [3] was “inactive” throughout.

For `C=C[C@]1(C)C=C2[C@H](OC(C)=O)[C@@H](O)[C@H]3C(C)(C)CCC[C@]3(C)[C@H]2CC1`, the Cell viability in the assay with TREx-HeLa-Vpr [1] was 96%. The Activity is 114% in the assay with TREx-HeLa-Vpr [2] and 127% in the assay with TREx-HeLa-Vpr [3].

Take `C=C[C@]1(C)C=C2C(=O)C[C@H]3C(C)(C)CCC[C@]3(C)[C@@]2(O)CC1`: the inhibition entry in the assay on TREx-HeLa-Vpr [1], with TREx-HeLa-Vpr [2] and in the assay on TREx-HeLa-Vpr [3] was “inactive” throughout.

Consider `C=C[C@@]1(C)CCC2=C(CC[C@H]3C(C)(C)CCC[C@]23C)[C@H]1O`, for which the Cell viability in the assay with TREx-HeLa-Vpr [1] stood at 104%. The results for the Activity in the assay on TREx-HeLa-Vpr [2] and in the assay on TREx-HeLa-Vpr [3] were 106% and 116%, respectively.

Consider `C=C[C@]1(C)C=C2CC[C@H]3C(C)(C)[C@H](O)C[C@H](O)[C@]3(C)[C@H]2CC1`, for which the inhibition result in the assay on TREx-HeLa-Vpr [1], in the assay with TREx-HeLa-Vpr [2] and with TREx-HeLa-Vpr [3] was “inactive” throughout.

On to `C=C[C@@]1(C)CCC2=C(C[C@@H](O)[C@H]3C(C)(C)CC[C@H](O)[C@]23C)[C@@H]1OC`, for which the inhibition result with TREx-HeLa-Vpr [1], in the assay with TREx-HeLa-Vpr [2] and in the assay on TREx-HeLa-Vpr [3] was “inactive” each time.

On to `C=C[C@]1(C)C=C2C[C@@H](O)[C@H]3C(C)(C)CCC[C@]3(C)[C@H]2CC1`, for which the inhibition result with TREx-HeLa-Vpr [1], with TREx-HeLa-Vpr [2] and in the assay on TREx-HeLa-Vpr [3] was “inactive” in each case.

For the compound `C=C[C@]1(C)C=C2C(=O)C[C@H]3C(C)(C)CC[C@H](O)[C@]3(C)[C@H]2CC1`, the inhibition entry with TREx-HeLa-Vpr [1], in the assay on TREx-HeLa-Vpr [2] and in the assay with TREx-HeLa-Vpr [3] was “inactive” throughout.

For the compound `C=C[C@@]1(C)C=C2CC[C@@H]3C(C)(C)C[C@@H](O)C[C@@]3(C)[C@@H]2CC1`, the inhibition result in the assay on TREx-HeLa-Vpr [1], with TREx-HeLa-Vpr [2] and in the assay on TREx-HeLa-Vpr [3] was “inactive” throughout.

As for `C=C[C@@]1(C)CCC2=C(C[C@@H](O)[C@H]3C(C)(C)CC[C@H](O)[C@]23C)[C@H]1O`, the inhibition entry in the assay on TREx-HeLa-Vpr [1], with TREx-HeLa-Vpr [2] and in the assay with TREx-HeLa-Vpr [3] was “inactive” in each case.

For the compound `C=C[C@@]1(C)CCC2=C(C[C@@H](O)[C@H]3C(C)(C)CCC[C@]23C)[C@H]1OC`, the inhibition result in the assay with TREx-HeLa-Vpr [1], in the assay on TREx-HeLa-Vpr [2] and with TREx-HeLa-Vpr [3] was “inactive” each time.

`CCOC(=O)/C=C/c1ccc(OC)cc1`: the inhibition result with TREx-HeLa-Vpr [1], with TREx-HeLa-Vpr [2] and in the assay on TREx-HeLa-Vpr [3] was “inactive” each time.

Consider `C=C[C@]1(C)C=C2C[C@@H](O)[C@H]3C(C)(C)CCC[C@]3(C)[C@@]2(OC)CC1`, for which the inhibition entry in the assay with TREx-HeLa-Vpr [1], in the assay with TREx-HeLa-Vpr [2] and with TREx-HeLa-Vpr [3] was “inactive” in each case.

As for `C=C[C@]1(C)C=C2CC[C@H]3C(C)(C)C[C@H](O)[C@H](O)[C@]3(C)[C@H]2[C@H](O)C1`, the inhibition result with TREx-HeLa-Vpr [1], in the assay with TREx-HeLa-Vpr [2] and in the assay with TREx-HeLa-Vpr [3] was “inactive” each time.

In the case of `C=C[C@@]1(C)CCC2=C(C(=O)C[C@H]3C(C)(C)CCC[C@]23C)[C@H]1O`, the inhibition result in the assay with TREx-HeLa-Vpr [1], in the assay with TREx-HeLa-Vpr [2] and in the assay with TREx-HeLa-Vpr [3] was “inactive” in each case.

`C=C[C@]1(C)C=C2[C@@H](O)[C@@H](O)[C@H]3C(C)(C)CCC[C@]3(C)[C@@]2(O)CC1`: the Cell viability in the assay on TREx-HeLa-Vpr [1] worked out at 96%. Also, the Activity with TREx-HeLa-Vpr [2] is 111%; in the assay on TREx-HeLa-Vpr [3] it was 130%.

On to `C=C[C@]1(C)C=C2C[C@@H](O)[C@H]3C(C)(C)CC[C@H](O)[C@]3(C)[C@H]2CC1`, for which the inhibition entry with TREx-HeLa-Vpr [1], in the assay on TREx-HeLa-Vpr [2] and with TREx-HeLa-Vpr [3] was “inactive” each time.

In the case of `C=C[C@]1(C)C=C2CC[C@H]3C(C)(C)CC[C@H](O)[C@]3(C)[C@H]2[C@H](O)C1`, the inhibition entry with TREx-HeLa-Vpr [1], in the assay on TREx-HeLa-Vpr [2] and in the assay on TREx-HeLa-Vpr [3] was “inactive” in each case.

`C=C[C@]1(C)C=C2CC[C@H]3C(C)(C)C[C@H](O)[C@H](O)[C@]3(C)[C@@]2(O)CC1`: the inhibition entry in the assay with TREx-HeLa-Vpr [1], in the assay with TREx-HeLa-Vpr [2] and with TREx-HeLa-Vpr [3] was “inactive” in each case.

Regarding `C=C[C@]1(C)C=C2C[C@@H](O)[C@H]3C(C)(C)[C@H](O)C[C@H](O)[C@]3(C)[C@H]2CC1`, the inhibition result with TREx-HeLa-Vpr [1], in the assay on TREx-HeLa-Vpr [2] and in the assay on TREx-HeLa-Vpr [3] was “inactive” in each case.

Turning to `C=C[C@@]1(C)CCC2=C(C[C@@H](O)[C@H]3C(C)(C)CCC[C@]23C)C1=O`, in the assay with TREx-HeLa-Vpr [1], the Cell viability came to 98%. Moreover, the values for the Activity in the assay with TREx-HeLa-Vpr [2] and in the assay with TREx-HeLa-Vpr [3] were 106% and 114%, respectively.

These data come from ChEMBL document CHEMBL3779842, “Isopimarane diterpenoids from Kaempferia pulchra rhizomes collected in Myanmar and their Vpr inhibitory activity” (Bioorg Med Chem Lett, 2016).
